A word on the melting point: it is the temperature of the solid-liquid transition.

Counter-ions that a name gives are not always drawn.

Consider `CCC1c2ncccc2OC2CCN3CCC21C3` (racemic) (as salt: HBr), for which the melting point was 170 °C (dec.).
